Measured values published in publication PMC4263767, “IL-28B is a Key Regulator of B- and T-Cell Vaccine Responses against Influenza” (PLoS Pathogens, 2014).
“Also recorded” adds a separate entry of the source. Read-outs that look alike come from different tables or passages of the source.

Legend:
[1] = system: transplant recipients; settings: MMF; ref [28], [48]; cited from earlier work
[2] = system: PBMCs from healthy volunteers; test: IL-28A, IL-28B and IL-29 mRNA expression in H1N1-stimulated PBMCs; type: cell-based, human; settings: MMF various concentrations 2 h before 6 h H1N1; n = 25
Description: (A) PBMCs from healthy volunteers were stimulated for six-hours with H1N1. mRNA-expression of IL-28A, IL-28B and IL-29 were normalized to non-stimulated controls and HPRT expression. Major (rs8099917 TT, n = 28) compared to minor (rs8099917 non-TT, n = 21) allele genotype. MWU-test determined statistically significant differences between groups. Bars show median values with interquartile range. (B) PBMCs from healthy volunteers (n = 25) were pre-treated with mycophenolate mofetil for 2 h prior to stimulated for six-hours with H1N1. mRNA-expression of IL-28A, IL-28B and IL-29 and statistical analysis were performed using the Kruskal Wallis (KW) test.
IL-28B primers and probe were designed based on Homo sapiens IL-28B mRNA-sequence (NM_172139.2) using Primer3 Input (version 0.4.0) (http://frodo.wi.mit.edu/). The forward primer (IL-28BF1: […]) spans the exon/exon junction of exons 1 and 2 of IL-28B. The IL-28B-specific probe (IL-28B probe: […] ) is located in the second exon and the reverse primer (IL-28BR1: […]) is in the third exon of the IL-28B gene. […]
The specificity of the three sets of qRT PCR assays was tested against Invivogen expression plasmids containing complete IL-28A (puno1-hIL-28A), IL-28B (puno1-hIL-28B) and IL-29 (punoIL-29) sequences. The specificity of all qRT PCR assays has been previously assessed. […]

[3] = system: IL28RA (IL-28 receptor alpha subunit); test: ELISA competition assay, binding of IL-28B to IL28RA; settings: for inhibition of IFN-λ / IL-28B binding to IL28RA (in words): peptides 10 µM, or increasing 10 nM to 100 µM; for binding affinity to IL28RA (in words): discussion
From the text: Recombinant IL28RA was coated on an ELISA plate and pre-treated with increasing concentrations of peptides. […] Anti-his secondary antibody was used to determine the relative amount of bound IFN-λ to the IL28RA. These dose-response curves allowed us to determine the effectiveness of binding inhibition of each peptide.
(C) Inhibitory activity of peptides against IL-28B to IL28RA. […] Bars indicate median values, whiskers inter-quartile ranges. The graph represents three independently repeated experiments. (D) Inhibitory activity of scrambled peptides against IL-28B to IL28RA. ELISA was used to measure the binding of a fixed concentration of IL-28B (100 ng/mL) to the IL28RA challenged by a fixed concentration of control peptides (10 µM; s, scramble). The median value representing three independently repeated experiments is shown. Whiskers indicate the interquartile range.

[4] = system: PBMCs from healthy volunteers; type: cell-based, human; settings: peptides 2 h prior to 5-day H1N1 stimulation, compared to peptide controls
[5] = system: T-cells, monocytes and macrophages; settings: ref [18]–[21]; cited from earlier work
From the text: The IFN-λ family (Interleukin-28A, -28B, -29, and IFN-λ4) is a recently described class of IFNs with antiviral properties similar to IFN-α and -β [14]–[17]. IFN-λ is known to induce phosphorylation of STAT-1 and -2 via binding to its receptor, which is a heterodimer consisting of the IL-28 receptor alpha subunit (IL28RA) and IL-10 receptor beta subunit (IL10RB). […] Furthermore, IFN-λs induced the development of T-regu ... || IL-28B (IFN-λ3) belongs to the family of IFN-lambdas and shares antiviral properties similar to IFN-α via induction of interferon stimulated genes (ISGs) such as MX1 or OAS1 [41]. […] IL-12 is a key cytokine for the induction of Th1 cells and cytotoxic lymphocytes, [43]. SNPs in the IL-28B gene (minor-allele genotypes) have been associated with reduced IL-28B expression, [29]–[33], which could impact adaptive immune functions during vaccination. One limitation of our study is that we d ...

[6] = system: IL28RA; settings: reference not given; cited from earlier work
From the text: An important strength of our study is the use of a clinical cohort including immunosuppressed transplant recipients to confirm our findings in the clinical setting. We then sought to define additional observations to support our clinical findings making our study unique. One limitation of our study is the heterogeneity of the transplant cohort due to a variety of underlying conditions leading to organ failure. […] In addition, we have shown that mycophenolate mofetil (MMF) and the IL-28B major-allele ...

[7] = system: H1N1 stimulated PBMCs; type: cell-based, human; settings: control peptides added twice during expansion phase
[8] = competition ELISA, IL-28B 100 ng/mL

COc1c(C)c2c(c(O)c1C/C=C(\C)CCC(=O)OCCN1CCOCC1)C(=O)OC2 [MMF, mycophenolate mofetil]
effect on influenza vaccine responses [1]: significantly suppress influenza vaccine responses | IFN-λ (IL-28A, IL-28B, IL-29) mRNA expression profiles [2]: no difference in IFN-λ expression profiles; also recorded: not influenced

ASVTFNLFRLLTRDLKY [peptide 6]
inhibition of IFN-λ / IL-28B binding to IL28RA (in words) [3, 8]: strong potential to inhibit binding of IFN-λs | binding affinity to IL28RA (in words) [3]: high binding affinities to IL28RA | H1N1-induced IgG production (in words) [4]: ability to significantly increase in vitro H1N1-induced IgG production

ELASFKKARDALEESLKL [peptide 1]
reduction of the binding of IL-28B to IL28RA ([3]; competition ELISA, IL-28B 100 ng/mL, peptide 10 µM (S5C/S5D Figure), median of three independent experiments): 71% | inhibition of IFN-λ / IL-28B binding to IL28RA (in words) [3, 8]: potent specific dose dependent inhibitory blocking effect | inhibition of IFN-λ / IL-28B binding to IL28RA (in words) ([3]; competition ELISA, IL-28B 100 ng/mL, listed as peptides 1): strong potential to inhibit binding of IFN-λs | binding affinity to IL28RA (in words) [3]: high binding affinities to IL28RA | H1N1-induced IgG production (in words) ([4]; listed as Peptides 1): strong trend for higher H1N1-induced IgG secretion | H1N1-induced IgG production (in words) ([4]; listed as peptides 1): ability to significantly increase in vitro H1N1-induced IgG production

IL-29: one of the IFN-λ family members
Th1 and Th2 cytokine producing T-cells [5]: increase Th1 and suppress Th2 cytokine producing T-cells | binding affinity towards IL28RA compared to IL-28B [6]: significantly greater binding affinity

penetratin
unspecific stimulatory effect on H1N1 stimulated IgG production [7]: No unspecific effect could be observed
